Assay results taken from US12690589B2, “Herbicidal compositions comprising pyroxasulfone” (BASF SE, priority 2024, dated 2026).
Where “and” joins values, the source holds several entries; their conditions need not be identical. Identical values can stand only once.

Tests used:
Test in all cases: Post-emergence application in field trials, herbicidal activity (damage scale 0 to 100%)
Type in all cases: in vivo
Glycine max (GLXMA) = test system: Glycine max (GLXMA)
Outline: (§1)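 Field sites with natural or seeded weeds were sprayed post-emergence via flat fan nozzles in 200 l/ha water plus 0.25 v/v % MSO adjuvant, solo or mixed with pyroxasulfone and other partners. Damage was scored 0–100% versus untreated plants at indicated DAT. Colby expected values were used to judge synergy.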

Senecio vulgaris (SENVU) = conditions: growth stage 61-62, height 25-30 cm
Outline: as §1

Bidens pilosa (BIDPI) = test system: Bidens pilosa (BIDPI)
[1] = test system: Commelina benghalensis (COMBE); conditions: 21 DAT
[2] = test system: Digitaria horizontalis (DIGHO); conditions: growth stage 25, height 5-10 cm, 21 DAT, Table 2.6
Eleusine indica (ELEIN) = test system: Eleusine indica (ELEIN)
[3] = test system: Euphorbia heterophylla (EPHHL); conditions: 21 DAT
Ipomoea triloba (IPOTR) = conditions: height 20-25 cm, 21 DAT, Table 2.2
[4] = 7 DAT, stage 12-13, height 7-11 cm, g ai/ha A-1 12.5, B 70, C-4 12.5
[5] = 42 DAT, stage 12-13, height 7-11 cm, g ai/ha A-1 18, B 70
[6] = 42 DAT, stage 12-13, height 7-11 cm, g ai/ha A-1 18, B 90
[7] = height 20-25 cm, A-1 25 g ai/ha, Table 2.2
[8] = height 20-25 cm, B 120 g ai/ha, Table 2.2

Structure (SMILES): CCOC(=O)COc1ccccc1Oc1nc(-n2c(=O)cc(C(F)(F)F)n(C)c2=O)c(F)cc1Cl [A-1, ethyl 2-[2-[[3-chloro-5-fluoro-6-[3-methyl-2,6-dioxo-4-(trifluoromethyl)pyrimidin-1-yl]-2-pyridyl]oxy]phenoxy]acetate]
- % Herbicidal activity (Glycine max (GLXMA); [4]): 90%
- % Herbicidal activity (Glycine max (GLXMA); [5]): 95%
- % Herbicidal activity (Glycine max (GLXMA); [6]): 95%
- % Herbicidal activity (Glycine max (GLXMA); GLXMA, growth stage 12-13, height 7-11 cm, A-1 12.5 g ai/ha, 7 DAT, Table 4.1): 90%
- % Herbicidal activity (Glycine max (GLXMA); GLXMA, growth stage 12-13, height 7-11 cm, A-1 12.5 g ai/ha, 21 DAT, Table 4.3): 95%
- % Herbicidal activity (Glycine max (GLXMA); GLXMA, growth stage 12-13, height 7-11 cm, A-1 18 g ai/ha, 7 DAT, Table 4.1): 90%
- % Herbicidal activity (Glycine max (GLXMA); GLXMA, growth stage 12-13, height 7-11 cm, A-1 18 g ai/ha, 21 DAT, Table 4.3): 92%
- % Herbicidal activity (Senecio vulgaris (SENVU); A-1 12.5 g ai/ha, 7 DAT, Table 4.2): 90%
- % Herbicidal activity (Senecio vulgaris (SENVU); A-1 12.5 g ai/ha, 21 DAT, Table 4.4): 40%
- % Herbicidal activity (Senecio vulgaris (SENVU); A-1 18 g ai/ha, 21 DAT, Table 4.4): 40%
- % Herbicidal activity (Bidens pilosa (BIDPI); growth stage 12-16, height 5-10 cm, A-1 25 g ai/ha, 21 DAT, Table 2.6): 94%
- % Herbicidal activity (Bidens pilosa (BIDPI); growth stage 23-25, height 10-20 cm, A-1 25 g ai/ha, 20 DAT, Table 2.1): 71%
- % Herbicidal activity (Bidens pilosa (BIDPI); growth stage 23-25, height 10-20 cm, A-1 50 g ai/ha, 20 DAT, Table 2.1): 77%
- % Herbicidal activity (Bidens pilosa (BIDPI); height 20-45 cm, A-1 50 g ai/ha, 21 DAT, Table 2.4): 92%
- % Herbicidal activity ([1]; growth stage 11-14, height 2-10 cm, A-1 50 g ai/ha, Table 2.6): 94%
- % Herbicidal activity [1, 7]: 42%
- % Herbicidal activity ([2]; A-1 50 g ai/ha): 92%
- % Herbicidal activity (Eleusine indica (ELEIN); growth stage 21-25, height 5-10 cm, A-1 25 g ai/ha, 20 DAT, Table 2.1): 53%
- % Herbicidal activity (Eleusine indica (ELEIN); growth stage 21-25, height 5-10 cm, A-1 50 g ai/ha, 20 DAT, Table 2.1): 59%
- % Herbicidal activity (Eleusine indica (ELEIN); growth stage 23-25, height 3-5 cm, A-1 25 g ai/ha, 21 DAT, Table 2.6): 94%
- % Herbicidal activity (Eleusine indica (ELEIN); growth stage 23-25, height 3-5 cm, A-1 50 g ai/ha, 21 DAT, Table 2.6): 95%
- % Herbicidal activity (Eleusine indica (ELEIN); height 20-25 cm, A-1 25 g ai/ha, 21 DAT, Table 2.3): 52%
- % Herbicidal activity ([3]; growth stage 12-16, height 5-15 cm, A-1 25 g ai/ha, Table 2.6): 97%
- % Herbicidal activity ([3]; growth stage 12-16, height 5-15 cm, A-1 50 g ai/ha, Table 2.6): 98%
- % Herbicidal activity ([3]; height 15-35 cm, A-1 50 g ai/ha, Table 2.4): 95%
- % Herbicidal activity [3, 7]: 86%
- % Herbicidal activity (Ipomoea triloba (IPOTR); A-1 25 g ai/ha): 88%

Structure (SMILES): Cn1nc(C(F)(F)F)c(CS(=O)(=O)C2=NOC(C)(C)C2)c1OC(F)F [B, pyroxasulfone]
- % Herbicidal activity (Glycine max (GLXMA); [4]): 0%
- % Herbicidal activity (Glycine max (GLXMA); [5]): 0%
- % Herbicidal activity (Glycine max (GLXMA); [6]): 0%
- % Herbicidal activity (Glycine max (GLXMA); GLXMA, growth stage 12-13, height 7-11 cm, B 70 g ai/ha, 7 DAT, Table 4.1): 0%
- % Herbicidal activity (Glycine max (GLXMA); GLXMA, growth stage 12-13, height 7-11 cm, B 70 g ai/ha, 21 DAT, Table 4.3): 0%
- % Herbicidal activity (Glycine max (GLXMA); GLXMA, growth stage 12-13, height 7-11 cm, B 90 g ai/ha, 7 DAT, Table 4.1): 0%
- % Herbicidal activity (Glycine max (GLXMA); GLXMA, growth stage 12-13, height 7-11 cm, B 90 g ai/ha, 21 DAT, Table 4.3): 0%
- % Herbicidal activity (Senecio vulgaris (SENVU); B 70 g ai/ha, 7 DAT, Table 4.2): 30%
- % Herbicidal activity (Senecio vulgaris (SENVU); B 70 g ai/ha, 21 DAT, Table 4.4): 20% and 10%
- % Herbicidal activity (Senecio vulgaris (SENVU); B 90 g ai/ha, 21 DAT, Table 4.4): 20%
- % Herbicidal activity (Bidens pilosa (BIDPI); growth stage 12-16, height 5-10 cm, B 120 g ai/ha, 21 DAT, Table 2.6): 5%
- % Herbicidal activity (Bidens pilosa (BIDPI); growth stage 23-25, height 10-20 cm, B 120 g ai/ha, 20 DAT, Table 2.1): 0%
- % Herbicidal activity (Bidens pilosa (BIDPI); height 20-45 cm, B 120 g ai/ha, 21 DAT, Table 2.4): 0%
- % Herbicidal activity ([1]; growth stage 11-14, height 2-10 cm, B 120 g ai/ha, Table 2.6): 10%
- % Herbicidal activity [1, 8]: 0%
- % Herbicidal activity ([2]; B 120 g ai/ha): 5%
- % Herbicidal activity (Eleusine indica (ELEIN); growth stage 21-25, height 5-10 cm, B 120 g ai/ha, 20 DAT, Table 2.1): 0%
- % Herbicidal activity (Eleusine indica (ELEIN); growth stage 23-25, height 3-5 cm, B 120 g ai/ha, 21 DAT, Table 2.6): 5%
- % Herbicidal activity (Eleusine indica (ELEIN); height 20-25 cm, B 120 g ai/ha, 21 DAT, Table 2.3): 0%
- % Herbicidal activity ([3]; growth stage 12-16, height 5-15 cm, B 120 g ai/ha, Table 2.6): 5%
- % Herbicidal activity ([3]; height 15-35 cm, B 120 g ai/ha, Table 2.4): 0%
- % Herbicidal activity [3, 8]: 0%
- % Herbicidal activity (Ipomoea triloba (IPOTR); B 120 g ai/ha): 0%
